From US20230192705A1, “SHP2 INHIBITORS, COMPOSITIONS AND USES THEREOF” (Betta Pharmaceuticals Co., Ltd, priority 2020, published 2023)

Molecular target: T1, SHP2 (Homo sapiens, UniProt Q06124)
T1 sequence (Q06124 1-593): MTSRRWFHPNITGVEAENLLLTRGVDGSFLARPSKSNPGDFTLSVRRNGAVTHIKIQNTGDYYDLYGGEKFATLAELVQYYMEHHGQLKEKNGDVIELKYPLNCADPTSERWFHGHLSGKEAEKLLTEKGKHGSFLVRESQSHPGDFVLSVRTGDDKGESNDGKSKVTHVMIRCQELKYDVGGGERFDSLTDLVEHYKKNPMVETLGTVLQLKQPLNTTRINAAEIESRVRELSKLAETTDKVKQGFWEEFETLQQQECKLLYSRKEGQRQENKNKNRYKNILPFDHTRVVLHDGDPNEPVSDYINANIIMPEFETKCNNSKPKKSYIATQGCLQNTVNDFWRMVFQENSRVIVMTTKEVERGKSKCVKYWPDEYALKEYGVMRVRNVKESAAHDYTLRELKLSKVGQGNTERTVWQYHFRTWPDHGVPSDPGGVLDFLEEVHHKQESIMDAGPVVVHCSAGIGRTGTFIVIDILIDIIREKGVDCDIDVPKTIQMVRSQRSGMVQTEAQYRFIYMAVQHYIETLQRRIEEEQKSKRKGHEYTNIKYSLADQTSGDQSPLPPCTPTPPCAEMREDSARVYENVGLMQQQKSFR
Assay: SHP2 allosteric inhibitor enzyme activity assay (DiFMUP fluorescence)
Type: biochemical
Details: class symbols
In short: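 SHP2 activated by 0.5 μM IRS1_pY1172(dPEG8)pY1222 peptide, 0.2 ng enzyme per well, 1 h at room temperature with compound (1 μM top, 3-fold series), then DiFMUP substrate 1 h. Buffer: 60 mM HEPES, 75 mM NaCl, 75 mM KCl, 0.05% BRIJ-35, 1 mM EDTA, 5 mM DTT. Fluorescence ex 340/em 450 nm; IC50 by variable-slope fit.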

Compound	IC50 [nM]
N[C@@H]1c2ccccc2CC12CCN(c1nc3[nH]nc(C4(c5ccnc(-c6ccccc6)c5)CC4)c3c(=O)[nH]1)CC2 [Example 86, (S)-6-(1-amino-1,3-dihydrospiro[indene-2,4′-piperidin]-1′-yl)-3-(1-(2-phenylpyridin-4-yl)cyclopropyl)-1,5-dihydro-4H-pyrazolo[3,4-d]pyrimidin-4-one]	≤ 20
COc1ccccc1C1(c2n[nH]c3nc(N4CCC5(CC4)Cc4ccccc4[C@H]5N)[nH]c(=O)c23)CC12CCCC2 (stereo partly drawn) [Example 101, 6-((S)-1-amino-1,3-dihydrospiro[indene-2,4′-piperidin]-1′-yl)-3-(1-(2-methoxyphenyl)spiro[2.4]heptan-1-yl)-1,5-dihydro-4H-pyrazolo[3,4-d]pyrimidin-4-one]	20 to 60
N[C@@H]1c2ccccc2CC12CCN(c1nc3[nH]nc(C4(c5cccc(C6CC6)c5)CC4)c3c(=O)[nH]1)CC2 [Example 218, (S)-6-(1-amino-1,3-dihydrospiro[indene-2,4′-piperidin]-1′-yl)-3-(1-(3-cyclopropylphenyl)cyclopropyl)-1,5-dihydro-4H-pyrazolo[3,4-d]pyrimidin-4-one]	≤ 20
N[C@@H]1c2ccccc2CC12CCN(c1nc3[nH]nc(C4(c5cccnc5)CC4)c3c(=O)[nH]1)CC2 [Example 247, (S)-6-(1-amino-1,3-dihydrospiro[indene-2,4′-piperidin]-1′-yl)-3-(1-(pyridin-3-yl)cyclopropyl)-1,5-dihydro-4H-pyrazolo[3,4-d]pyrimidin-4-one]	≤ 20
C[C@@H]1OCC2(CCN(c3nc4[nH]nc(C5(c6cccc(C(F)(F)F)c6)CC5)c4c(=O)[nH]3)CC2)[C@@H]1N [Example 297, 6-((3S,4S)-4-amino-3-methyl-2-oxa-8-azaspiro[4.5]decan-8-yl)-3-(1-(3-(trifluoromethyl)phenyl)cyclopropyl)-1,5-dihydro-4H-pyrazolo[3,4-d]pyrimidin-4-one]	20 to 60
C[C@@H]1OCC2(CCN(c3nc4[nH]nc(C5(c6cccc(Br)c6)CC5)c4c(=O)[nH]3)CC2)[C@@H]1N [Example 317, 6-((3S,4S)-4-amino-3-methyl-2-oxa-8-azaspiro[4.5]decan-8-yl)-3-(1-(3-bromophenyl)cyclopropyl)-1,5-dihydro-4H-pyrazolo[3,4-d]pyrimidin-4-one]	20 to 60
N[C@@H]1c2ccccc2CC12CCN(c1nc3[nH]nc(C4(c5ccnc(N6CCOCC6)c5)CC4)c3c(=O)[nH]1)CC2 [Example 31, (S)-6-(1-amino-1,3-dihydrospiro[indene-2,4′-piperidin]-1′-yl)-3-(1-(2-morpholinopyridin-4-yl)cyclopropyl)-1,5-dihydro-4H-pyrazolo[3,4-d]pyrimidin-4-one]	20 to 60
COc1cccc(C2(c3n[nH]c4nc(N5CCC6(CC5)Cc5ccccc5[C@H]6N)[nH]c(=O)c34)CCC2)c1 [Example 95, (S)-6-(1-amino-1,3-dihydrospiro[indene-2,4′-piperidin]-1′-yl)-3-(1-(3-methoxyphenyl)cyclobutyl)-1,5-dihydro-4H-pyrazolo[3,4-d]pyrimidin-4-one]	≤ 20
N[C@@H]1c2ccccc2CC12CCN(c1nc3[nH]nc(C4(c5ccccc5)CC4)c3c3nncn13)CC2 [Example 3]	≤ 20
N[C@@H]1c2ccccc2CC12CCN(c1nc3[nH]nc(C4(c5ccc(Cl)nn5)CC4)c3c(=O)[nH]1)CC2 [Example 69, (S)-6-(1-amino-1,3-dihydrospiro[indene-2,4′-piperidin]-1′-yl)-3-(1-(6-chloropyridazin-3-yl)cyclopropyl)-1,5-dihydro-4H-pyrazolo[3,4-d]pyrimidin-4-one]	20 to 60
CC1(C)Cc2ncccc2C(c2n[nH]c3nc(N4CCC5(CC4)Cc4ccccc4[C@H]5N)[nH]c(=O)c23)=C1F [Example 190, (S)-6-(1-amino-1,3-dihydrospiro[indene-2,4′-piperidin]-1′-yl)-3-(6-fluoro-7,7-dimethyl-7,8-dihydroquinolin-5-yl)-1,5-dihydro-4H-pyrazolo[3,4-d]pyrimidin-4-one]	≤ 20
N[C@@H]1c2ccccc2CC12CCN(c1nc3[nH]nc(C4=CC5(COC5)c5ccccc54)c3c(=O)[nH]1)CC2 [Example 170, (S)-6-(1-amino-1,3-dihydrospiro[indene-2,4′-piperidin]-1′-yl)-3-(spiro[indene-1,3′-oxetan]-3-yl)-1,5-dihydro-4H-pyrazolo[3,4-d]pyrimidin-4-one]	≤ 20
Cn1cc2c(n1)CCC=C2c1n[nH]c2nc(N3CCC4(CC3)Cc3ccccc3[C@H]4N)[nH]c(=O)c12 [Example 121, (S)-6-(1-amino-1,3-dihydrospiro[indene-2,4′-piperidin]-1′-yl)-3-(2-methyl-6,7-dihydro-2H-indazol-4-yl)-1,5-dihydro-4H-pyrazolo[3,4-d]pyrimidin-4-one]	≤ 20
N[C@@H]1c2ccccc2CC12CCN(c1nc3[nH]nc(C4(c5nncs5)CC4)c3c(=O)[nH]1)CC2 [Example 239, (S)-3-(1-(1,3,4-thiadiazol-2-yl)cyclopropyl)-6-(1-amino-1,3-dihydrospiro[indene-2,4′-piperidin]-1′-yl)-1,5-dihydro-4H-pyrazolo[3,4-d]pyrimidin-4-one]	≤ 20
N[C@@H]1c2ccccc2CC12CCN(c1nc3[nH]nc(C4=CCCc5occc54)c3c(=O)[nH]1)CC2 [Example 119, (S)-6-(1-amino-1,3-dihydrospiro[indene-2,4′-piperidin]-1′-yl)-3-(6,7-dihydrobenzofuran-4-yl)-1,5-dihydro-4H-pyrazolo[3,4-d]pyrimidin-4-one]	≤ 20
CC1(C)C=C(c2n[nH]c3nc(N4CCC5(CC4)Cc4ccccc4[C@H]5N)[nH]c(=O)c23)c2ccccc21 [Example 176, (S)-6-(1-amino-1,3-dihydrospiro[indene-2,4′-piperidin]-1′-yl)-3-(1,1-dimethyl-1H-inden-3-yl)-1,5-dihydro-4H-pyrazolo[3,4-d]pyrimidin-4-one]	≤ 20
COc1ccccc1C1(c2n[nH]c3nc(N4CCC5(CC4)CO[C@@H](C)[C@H]5N)[nH]c(=O)c23)CC1 [Example 306, 6-((3S,4S)-4-amino-3-methyl-2-oxa-8-azaspiro[4.5]decan-8-yl)-3-(1-(2-methoxyphenyl)cyclopropyl)-1,5-dihydro-4H-pyrazolo[3,4-d]pyrimidin-4-one]	20 to 60
N[C@@H]1c2ccccc2CC12CCN(c1nc3[nH]nc(C4=CCOc5ncccc54)c3c(=O)[nH]1)CC2 [Example 116, (S)-6-(1-amino-1,3-dihydrospiro[indene-2,4′-piperidin]-1′-yl)-3-(2H-pyrano[2,3-b]pyridin-4-yl)-1,5-dihydro-4H-pyrazolo[3,4-d]pyrimidin-4-one]	≤ 20
COc1cc(C2(c3n[nH]c4nc(N5CCC6(CC5)CO[C@@H](C)[C@H]6N)[nH]c(=O)c34)CC2)ccc1F [Example 289, 6-((3S,4S)-4-amino-3-methyl-2-oxa-8-azaspiro[4.5]decan-8-yl)-3-(1-(4-fluoro-3-methoxyphenyl)cyclopropyl)-1,5-dihydro-4H-pyrazolo[3,4-d]pyrimidin-4-one]	> 60
N[C@@H]1c2ccccc2CC12CCN(c1nc3[nH]nc(C4(c5cocn5)CC4)c3c(=O)[nH]1)CC2 [Example 85, (S)-6-(1-amino-1,3-dihydrospiro[indene-2,4′-piperidin]-1′-yl)-3-(1-(oxazol-4-yl)cyclopropyl)-1,5-dihydro-4H-pyrazolo[3,4-d]pyrimidin-4-one]	≤ 20
N[C@@H]1c2ccccc2CC12CCN(c1nc3[nH]nc(C4(c5cccc6c5COC6)CC4)c3c(=O)[nH]1)CC2 [Example 83, (S)-6-(1-amino-1,3-dihydrospiro[indene-2,4′-piperidin]-1′-yl)-3-(1-(1,3-dihydroisobenzofuran-4-yl)cyclopropyl)-1,5-dihydro-4H-pyrazolo[3,4-d]pyrimidin-4-one]	≤ 20
N[C@@H]1c2ccccc2CC12CCN(c1nc3[nH]nc(C4=CCOc5ccc(Cl)cc54)c3c(=O)[nH]1)CC2 [Example 135, (S)-6-(1-amino-1,3-dihydrospiro[indene-2,4′-piperidin]-1′-yl)-3-(6-chloro-2H-chromen-4-yl)-1,5-dihydro-4H-pyrazolo[3,4-d]pyrimidin-4-one]	≤ 20
N[C@@H]1c2ccccc2CC12CCN(c1nc3[nH]nc(C4(c5ccccn5)CC4)c3c(=O)[nH]1)CC2 [Example 23, (S)-6-(1-amino-1,3-dihydrospiro[indene-2,4′-piperidin]-1′-yl)-3-(1-(pyridin-2-yl)cyclopropyl)-1,5-dihydro-4H-pyrazolo[3,4-d]pyrimidin-4-one]	≤ 20
C[C@@H]1OCC2(CCN(c3ncc4c(C5(c6ccccc6)CC5)n[nH]c4n3)CC2)[C@@H]1N [Example 267, (3S,4S)-3-methyl-8-(3-(1-phenylcyclopropyl)-1H-pyrazolo[3,4-d]pyrimidin-6-yl)-2-oxa-8-azaspiro[4.5]decan-4-amine]	20 to 60
CP(C)(=O)c1cccc(C2(c3n[nH]c4nc(N5CCC6(CC5)Cc5ccccc5[C@H]6N)[nH]c(=O)c34)CC2)c1 [Example 224, (S)-6-(1-amino-1,3-dihydrospiro[indene-2,4′-piperidin]-1′-yl)-3-(1-(3-(dimethylphosphoryl)phenyl)cyclo-propyl)-1,5-dihydro-4H-pyrazolo[3,4-d]pyrimidin-4-one]	≤ 20
